Measured values reported in the supplement of paper PMC10331698.
± gives the standard deviation of the averaged measurements.

Legend:
Assay in all cases: level (log10 ratio to DMSO vehicle control); higher = higher biomarker level / cell amount than vehicle control
Details in all cases: in DMSO
[1] = compound: C=C(C)C(=O)OCC(F)(F)C(F)(F)C(F)(F)C(F)(F)C(F)(F)C(F)(F)C(F)(F)F
Procedure: (§1)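 BioMAP Diversity Plus panel of 12 human primary cell co-culture systems (3C, 4H, LPS, SAg, BT, BF4T, BE3C, CASM3C, HDF3CGF, KF3CT, MyoF, Mphg). Compounds were added 1 h before stimulation and left for 24 h (MyoF 48 h; BT 72 h for soluble read-outs or 6 d for IgG). Biomarkers were read by ELISA, cytotoxicity by SRB, PBMC viability and proliferation by Alamar Blue. Each well value was divided by the mean of 8 DMSO control wells on the same plate and log10 transformed; duplicate blinded samples were tested at 4 concentrations.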

Azathioprine = compound: Cn1cnc([N+](=O)[O-])c1Sc1ncnc2[nH]cnc12 [Azathioprine]
Procedure: as §1

[2] = compound: O=C(O)CCC(F)(F)C(F)(F)C(F)(F)C(F)(F)C(F)(F)F [2H,2H,3H,3H-Perfluorooctanoic acid]
Procedure: as §1

[3] = compound: O=C(O)CCC(F)(F)C(F)(F)C(F)(F)F [3:3 Fluorotelomer carboxylic acid]
Procedure: as §1

[4] = compound: O=P(O)(O)CCC(F)(F)C(F)(F)C(F)(F)C(F)(F)C(F)(F)C(F)(F)C(F)(F)C(F)(F)F [((Perfluorooctyl)ethyl)phosphonic acid]
Procedure: as §1

1H,1H-Heptafluorobutanol = compound: OCC(F)(F)C(F)(F)C(F)(F)F [1H,1H-Heptafluorobutanol]
Procedure: as §1

Test System | level (log10) ([1]; 6700 nM) | level (log10) ([1]; 20000 nM) | level (log10) (Azathioprine; 1400 nM) | level (log10) (Azathioprine; 4200 nM) | level (log10) (Azathioprine; 13000 nM) | level (log10) (Azathioprine; 38000 nM) | level (log10) ([2]; 6700 nM) | level (log10) ([2]; 20000 nM) | level (log10) ([2]; 60000 nM) | level (log10) ([3]; 6700 nM) | level (log10) ([3]; 20000 nM) | level (log10) ([3]; 60000 nM) | level (log10) ([4]; 6700 nM) | level (log10) ([4]; 20000 nM) | level (log10) ([4]; 60000 nM) | level (log10) (1H,1H-Heptafluorobutanol; 6700 nM) | level (log10) (1H,1H-Heptafluorobutanol; 20000 nM) | level (log10) (1H,1H-Heptafluorobutanol; 60000 nM)
3C:CD87/uPAR | -0.0235 ± 0.054 | -0.015 ± 0.048 | 0.0255 ± 0.037 | 0.016 ± 0.033 | 0.0565 ± 0.018 | 0.044 ± 0.0071 | -0.0155 ± 0.043 | -0.0055 ± 0.016 | -0.021 ± 0.023 | 0.0055 ± 0.011 | -0.017 ± 0.0057 | -0.0125 ± 0.018 | 0.0455 ± 0.043 | 0.071 ± 0.025 | 0.0885 ± 0.059 | -0.011 ± 0.025 | 0.0085 ± 0.023 | 0.026 ± 0.021
3C:CXCL8/IL-8 | -0.0085 ± 0.032 | 0.03 ± 0.014 | 0.016 ± 0.054 | -0.01 ± 0.011 | -0.026 ± 0.0085 | -0.0455 ± 0.018 | -0.032 ± 0.075 | 0.005 ± 0.0042 | 0.0265 ± 0.0092 | -0.004 ± 0.0014 | 0.0045 ± 0.012 | 0.023 ± 0.044 | 0.0315 ± 0.019 | 0.03 ± 0.018 | 0.0685 ± 0.0092 | 0.0005 ± 0.067 | -0.0055 ± 0.079 | 0.0185 ± 0.093
3C:CXCL9/MIG | -0.001 ± 0.017 | 0.015 ± 0.0099 | 0.003 | 0.003 ± 0.0014 | 0.0025 ± 0.005 | 0.0125 ± 0.0035 | -0.006 ± 0.013 | -0.007 ± 0.027 | -0.0075 ± 0.021 | 0.0045 ± 0.0021 | -0.001 ± 0.0028 | 0.001 ± 0.0014 | 0.006 ± 0.0057 | -0.0045 ± 0.005 | 0.0185 ± 0.0064 | 0.001 ± 0.021 | 0.002 ± 0.014 | 0 ± 0.017
3C:HLA-DR | 0.0085 ± 0.011 | -0.0005 ± 0.019 | 0.006 ± 0.013 | -0.001 ± 0.021 | 0.005 ± 0.048 | 0.005 ± 0.042 | -0.0085 ± 0.00071 | -0.019 ± 0.023 | -0.001 ± 0.0071 | -0.0055 ± 0.029 | -0.0155 ± 0.013 | -0.0105 ± 0.0092 | 0.005 ± 0.0085 | 0.001 ± 0.0042 | -0.0285 ± 0.023 | -0.0025 ± 0.0021 | 0.0035 ± 0.012 | 0.005 ± 0.014
3C:Proliferation | -0.0365 ± 0.039 | -0.0595 ± 0.037 | -0.04 ± 0.057 | -0.038 ± 0.081 | -0.048 ± 0.018 | -0.179 ± 0.031 | -0.0415 ± 0.022 | -0.038 ± 0.033 | -0.007 ± 0.0014 | -0.0215 ± 0.054 | -0.0175 ± 0.091 | 0.0195 ± 0.049 | -0.0505 ± 0.019 | -0.172 ± 0.071 | -0.481 ± 0.18 | 0.0075 ± 0.005 | 0.02 ± 0.025 | -0.0595 ± 0.005
3C:SRB | 0.0095 ± 0.015 | -0.0105 ± 0.022 | -0.006 ± 0.0014 | -0.016 ± 0.0071 | -0.0275 ± 0.005 | -0.0955 ± 0.019 | -0.002 | -0.0085 ± 0.0078 | -0.009 ± 0.0085 | -0.0095 ± 0.00071 | -0.006 ± 0.0028 | -0.012 ± 0.0099 | 0.01 ± 0.016 | 0.001 ± 0.016 | -0.078 ± 0.045 | -0.0095 ± 0.012 | 0.001 ± 0.0085 | -0.001 ± 0.0071
4H:CCL2/MCP-1 | -0.0415 ± 0.0092 | -0.005 ± 0.061 | 0.018 ± 0.096 | 0.0255 ± 0.04 | -0.035 ± 0.1 | 0.0055 ± 0.042 | 0.009 ± 0.0042 | -0.008 ± 0.0057 | 0.0025 ± 0.0064 | -0.032 ± 0.048 | -0.0525 ± 0.012 | 0.007 ± 0.013 | -0.01 ± 0.0042 | -0.0135 ± 0.022 | 0.004 ± 0.042 | 0.0015 ± 0.0035 | -0.0025 ± 0.00071 | 0.0125 ± 0.026
4H:CCL26/Eotaxin-3 | 0.0385 ± 0.043 | 0.0315 ± 0.047 | 0.016 ± 0.0099 | -0.009 ± 0.021 | -0.003 ± 0.011 | -0.0255 ± 0.035 | 0.032 ± 0.017 | 0.0095 ± 0.016 | 0.0125 ± 0.015 | -0.005 ± 0.0071 | -0.004 | -0.0225 ± 0.043 | -0.011 ± 0.0085 | -0.025 ± 0.0057 | -0.108 ± 0.033 | 0.017 ± 0.03 | 0.01 ± 0.014 | 0.0255 ± 0.021
4H:CD62P/P-selectin | -0.0205 ± 0.076 | -0.0315 ± 0.063 | -0.019 ± 0.062 | -0.007 ± 0.031 | -0.0075 ± 0.036 | -0.108 ± 0.011 | 0.005 ± 0.048 | -0.041 ± 0.073 | 0.002 ± 0.034 | 0.0135 ± 0.042 | 0.0445 ± 0.025 | -0.003 ± 0.02 | -0.0285 ± 0.019 | -0.0235 ± 0.015 | -0.126 ± 0.022 | 0.0195 ± 0.064 | -0.007 ± 0.14 | 0.044 ± 0.15
4H:CD87/uPAR | -0.019 ± 0.025 | -0.0015 ± 0.028 | 0.0045 ± 0.018 | -0.03 ± 0.035 | -0.0015 ± 0.00071 | 0.0315 ± 0.00071 | -0.008 ± 0.04 | -0.0065 ± 0.03 | -0.062 ± 0.037 | 0.001 ± 0.027 | -0.014 ± 0.0071 | -0.045 ± 0.011 | 0.018 ± 0.058 | -0.003 ± 0.024 | 0.102 ± 0.0064 | -0.0055 ± 0.035 | 0.004 ± 0.071 | 0.032 ± 0.09
4H:CD106/VCAM-1 | -0.0205 ± 0.00071 | 0.0005 ± 0.021 | -0.024 ± 0.017 | -0.0205 ± 0.025 | -0.0655 ± 0.015 | -0.132 ± 0.044 | -0.0135 ± 0.0092 | -0.0325 ± 0.026 | -0.0405 ± 0.029 | -0.009 ± 0.0028 | -0.014 ± 0.014 | -0.0165 ± 0.013 | 0.011 ± 0.0099 | -0.0095 ± 0.016 | -0.002 ± 0.0028 | 0 ± 0.03 | 0.0325 ± 0.023 | 0.027 ± 0.048
4H:SRB | 0.0005 ± 0.029 | -0.0035 ± 0.018 | -0.0135 ± 0.0092 | -0.0075 ± 0.005 | -0.015 ± 0.0085 | -0.0485 ± 0.019 | -0.004 ± 0.0099 | -0.0115 ± 0.016 | -0.001 ± 0.014 | -0.0125 ± 0.022 | -0.003 ± 0.013 | -0.0185 ± 0.012 | -0.0005 ± 0.0064 | 0.0025 ± 0.022 | -0.055 ± 0.052 | -0.005 ± 0.0071 | -0.0005 ± 0.013 | 0.0065 ± 0.005
4H:VEGFR2 | 0.0165 ± 0.0064 | 0.0365 ± 0.05 | -0.0045 ± 0.012 | 0.0015 ± 0.047 | -0.0195 ± 0.0078 | 0.0155 ± 0.06 | 0.008 ± 0.011 | 0.02 ± 0.017 | 0.0155 ± 0.03 | -0.0045 ± 0.0078 | -0.0135 ± 0.011 | 0.0075 ± 0.063 | -0.016 ± 0.033 | -0.024 ± 0.035 | 0.007 ± 0.0057 | 0.0085 ± 0.026 | -0.0015 ± 0.0035 | 0.003 ± 0.035
BE3C:CD54/ICAM-1 | 0.007 ± 0.0014 | 0.006 ± 0.0085 | 0 ± 0.018 | -0.0115 ± 0.013 | -0.0075 ± 0.0078 | -0.001 ± 0.031 | -0.0065 ± 0.0078 | -0.0085 ± 0.005 | -0.0155 ± 0.011 | -0.009 ± 0.0042 | 0.017 ± 0.02 | 0.002 ± 0.0057 | -0.0275 ± 0.00071 | -0.024 | 0.0045 ± 0.012 | -0.0035 ± 0.0092 | -0.0105 ± 0.00071 | 0.0085 ± 0.011
BE3C:CD87/uPAR | 0.0015 ± 0.016 | -0.004 ± 0.023 | 0.0185 ± 0.029 | -0.014 ± 0.0042 | -0.0175 ± 0.057 | -0.0435 ± 0.063 | -0.0085 ± 0.0064 | 0.005 ± 0.033 | 0.0255 ± 0.037 | 0.0045 ± 0.016 | -0.0035 ± 0.011 | 0.0115 ± 0.019 | 0.0235 ± 0.025 | 0.04 ± 0.035 | 0.079 ± 0.038 | -0.0115 ± 0.0092 | 0.032 ± 0.018 | 0.0015 ± 0.021
BE3C:CXCL8/IL-8 | 0.011 ± 0.024 | 0.0275 ± 0.015 | -0.012 ± 0.059 | -0.013 ± 0.054 | -0.052 | -0.088 ± 0.013 | 0.033 ± 0.042 | 0.004 ± 0.041 | 0.0035 ± 0.036 | -0.0085 ± 0.036 | 0.0075 ± 0.005 | -0.0095 ± 0.0092 | 0.0305 ± 0.033 | 0.019 ± 0.028 | -0.001 ± 0.048 | 0.0275 ± 0.063 | 0 ± 0.04 | 0.003 ± 0.033
